Assay results: patent US20110319491A1, “ANHYDROUS DEPIGMENTING COMPOSITIONS COMPRISING, WITHIN THE FATTY PHASE THEREOF, A SOLUBILIZED PHENOLIC COMPOUND AND A RETINOID” (GALDERMA RESEARCH & DEVELOPMENT, priority 2009, published 2011)
Read-outs that look alike come from different tables or passages of the source.

Experiments:
[1] = Chemical stability of the formulations (HPLC assay of the active agents); format: physicochemical
Procedure: The chemical stability is measured by assaying the active agents by external calibration in HPLC and the results are expressed as a % of […] relative to the theoretical value.

[2] = in all the solvents that may be used for retinoids; cited from earlier work
[3] = cited from earlier work
[4] = Stability of hydroquinone in solvent oils and lipophilic surfactants (HPLC assay, colour)
[5] = Rucinol solubilities in solvents (HPLC); format: physicochemical
[6] = Stability of rucinol in solvent oils and lipophilic surfactants (HPLC assay); format: physicochemical; settings: T0 = 100%
Excerpt: Assay technique by HPLC against reference substance.
The initial time (T0) is considered as 100%.

[7] = in composition of Example 2, 40° C., T + 1 M
[8] = in composition of Example 2, 40° C., T + 2 M
[9] = in composition of Example 2, 40° C., T + 3 M
[10] = in composition of Example 2, RT, T + 1 M
[11] = in composition of Example 2, RT, T + 2 M
[12] = in composition of Example 2, RT, T + 3 M
[13] = in composition of Example 3, 4° C., T + 1 M
[14] = in composition of Example 3, 4° C., T + 2 M
[15] = in composition of Example 3, 40° C., T + 1 M
[16] = in composition of Example 3, 40° C., T + 2 M
[17] = in composition of Example 3, RT, T0
[18] = in composition of Example 3, RT, T + 1 M
[19] = in composition of Example 3, RT, T + 2 M
[20] = in Caprylic capric triglycerides
[21] = in Cremophor EL, 1 month, 40° C.
[22] = in Cremophor EL, 3 months, 40° C.
[23] = in Crodamol DA, 1 month, 40° C.
[24] = in Crodamol DA, 3 months, 40° C.
[25] = in Ethanol/water (20/80), 1 month, 40° C.
[26] = in Ethanol/water (20/80), 1 month, RT
[27] = in Ethanol/water (20/80), 3 months, 40° C.
[28] = in Ethanol/water (20/80), 3 months, RT
[29] = in Propylene glycol, 1 month, 40° C.
[30] = in Propylene glycol, 1 month, RT
[31] = in Propylene glycol, 3 months, 40° C.
[32] = in Propylene glycol, 3 months, RT

## COc1ccc(-c2ccc3cc(C(=O)O)ccc3c2)cc1C12CC3CC(CC(C3)C1)C2 [Adapalene, 6-(3-(1-adamantyl)-4-methoxyphenyl)-2-naphthoic acid]
[1]; [7]
  Chemical stability: adapalene assay, % relative to the theoretical value: 92.4%
[1]; [8]
  Chemical stability: adapalene assay, % relative to the theoretical value: 96.8%
[1]; [9]
  Chemical stability: adapalene assay, % relative to the theoretical value: 94.5%
[1]; [10]
  Chemical stability: adapalene assay, % relative to the theoretical value: 94%
[1]; [11]
  Chemical stability: adapalene assay, % relative to the theoretical value: 97.4%
[1]; [12]
  Chemical stability: adapalene assay, % relative to the theoretical value: 95.3%
[1]; [13]
  Chemical stability: adapalene assay, % relative to the theoretical value: 104%
[1]; [14]
  Chemical stability: adapalene assay, % relative to the theoretical value: 107.0%
[1]; [15]
  Chemical stability: adapalene assay, % relative to the theoretical value: 108%
[1]; [16]
  Chemical stability: adapalene assay, % relative to the theoretical value: 106.0%
[1]; [17]
  Chemical stability: adapalene assay, % relative to the theoretical value: 108.7%
[1]; [18]
  Chemical stability: adapalene assay, % relative to the theoretical value: 106%
[1]; [19]
  Chemical stability: adapalene assay, % relative to the theoretical value: 106.0%
[2]
  Solubility of adapalene (in words): insoluble

## Oc1ccc(O)cc1 [Hydroquinone, hydroquinone]
[1]; [7]
  Chemical stability: hydroquinone assay, % relative to the theoretical value: 97.6%
[1]; [8]
  Chemical stability: hydroquinone assay, % relative to the theoretical value: 100.8%
[1]; [9]
  Chemical stability: hydroquinone assay, % relative to the theoretical value: 99.2%
[1]; in composition of Example 2, 40° C., T + 6 M
  Chemical stability: hydroquinone assay, % relative to the theoretical value: 97.2%
[1]; [10]
  Chemical stability: hydroquinone assay, % relative to the theoretical value: 98.9%
[1]; [11]
  Chemical stability: hydroquinone assay, % relative to the theoretical value: 101.8%
[1]; [12]
  Chemical stability: hydroquinone assay, % relative to the theoretical value: 98.8%
[1]; in composition of Example 2, RT, T + 6 M
  Chemical stability: hydroquinone assay, % relative to the theoretical value: 100.6%
In Arlamol E
  Max. solubility (w/w): 11.9 w/w
[20]
  Max. solubility (w/w): 1.7 w/w
In Castor oil
  Max. solubility (w/w): 6.5 w/w
In Cremophor EL
  Max. solubility (w/w): 27.9 w/w
  Solubility of hydroquinone (in words): high solubility
In Crodamol DA
  Max. solubility (w/w): 10.7 w/w
In Ethanol/water (20/80)
  Max. solubility (w/w): 17 w/w
In Glycerol
  Max. solubility (w/w): 15.6 w/w
In Labrasol
  Max. solubility (w/w): 28.9 w/w
In Lauroglycol
  Max. solubility (w/w): 5.5 w/w
In PEG 400
  Max. solubility (w/w): 19.8 w/w
In Propylene glycol
  Max. solubility (w/w): 15.6 w/w
[3]; 2% hydroquinone concentration
  Incidence of irritation: virtually nonexistent
[3]; 10% hydroquinone concentration
  Incidence of irritation: relatively high
[3]; preparations with a 5% dose of hydroquinone
  Incidence of irritation: reduces greatly
[4]; in Arlamol E, 1 month, 40° C.
  % (HPLC assay, T0 = 100%): 95.5%
  Colour: Colourless
[4]; in Arlamol E, 1 month, RT
  % (HPLC assay, T0 = 100%): 95.9%
  Colour: Colourless
[4]; in Arlamol E, 3 months, 40° C.
  % (HPLC assay, T0 = 100%): 96.0%
  Colour: Colourless
[4]; in Arlamol E, 3 months, RT
  % (HPLC assay, T0 = 100%): 95.9%
  Colour: Colourless
[4]; [21]
  % (HPLC assay, T0 = 100%): 87.1%
  Colour: Brown
[4]; in Cremophor EL, 1 month, RT
  % (HPLC assay, T0 = 100%): 91.4%
  Colour: Orange
[4]; [22]
  % (HPLC assay, T0 = 100%): 85.1%
  Colour: Brown++
[4]; in Cremophor EL, 3 months, RT
  % (HPLC assay, T0 = 100%): 87%
  Colour: Brown+
[4]; in Cremophor EL, browning that becomes pronounced over time and with temperature
  Macroscopic stability of hydroquinone (in words): macroscopic instability
[4]; in Crodamol DA, Arlamol E and Labrasol
  Chemical and physical stability of hydroquinone (in words): good chemical and physical stability
[4]; [23]
  % (HPLC assay, T0 = 100%): 95.9%
  Colour: Colourless
[4]; in Crodamol DA, 1 month, RT
  % (HPLC assay, T0 = 100%): 96.5%
  Colour: Colourless
[4]; [24]
  % (HPLC assay, T0 = 100%): 97.4%
  Colour: Colourless
[4]; in Crodamol DA, 3 months, RT
  % (HPLC assay, T0 = 100%): 97.6%
  Colour: Colourless
[4]; [25]
  % (HPLC assay, T0 = 100%): 91.7%
  Colour: Dark pink
[4]; [26]
  % (HPLC assay, T0 = 100%): 94.4%
  Colour: Orange
[4]; [27]
  % (HPLC assay, T0 = 100%): 89.4%
  Colour: Brown
[4]; [28]
  % (HPLC assay, T0 = 100%): 93.9%
  Colour: Orange
[4]; in Glycerol, 1 month, 40° C.
  % (HPLC assay, T0 = 100%): 93.5%
  Colour: Dark yellow
[4]; in Glycerol, 1 month, RT
  % (HPLC assay, T0 = 100%): 95.0%
  Colour: Yellow
[4]; in Glycerol, 3 months, 40° C.
  % (HPLC assay, T0 = 100%): 93.3%
  Colour: Orange
[4]; in Glycerol, 3 months, RT
  % (HPLC assay, T0 = 100%): 93.0%
  Colour: Pink
[4]; in Labrasol, 1 month, 40° C.
  % (HPLC assay, T0 = 100%): 95.2%
  Colour: Colourless
[4]; in Labrasol, 1 month, RT
  % (HPLC assay, T0 = 100%): 95.4%
  Colour: Colourless
[4]; in Labrasol, 3 months, 40° C.
  % (HPLC assay, T0 = 100%): 95.1%
  Colour: Colourless
[4]; in Labrasol, 3 months, RT
  % (HPLC assay, T0 = 100%): 94.6%
  Colour: Colourless
[4]; in Miglyol, 1 month, 40° C.
  % (HPLC assay, T0 = 100%): 95%
  Colour: Colourless
[4]; in Miglyol, 1 month, RT
  % (HPLC assay, T0 = 100%): 94.2%
  Colour: Colourless
[4]; in Miglyol, 3 months, 40° C.
  % (HPLC assay, T0 = 100%): 95%
  Colour: Colourless
[4]; in Miglyol, 3 months, RT
  % (HPLC assay, T0 = 100%): 93.1%
  Colour: Colourless
[4]; in PEG 400, 1 month, 40° C.
  % (HPLC assay, T0 = 100%): 91.4%
  Colour: Orange
[4]; in PEG 400, 1 month, RT
  % (HPLC assay, T0 = 100%): 93.4%
  Colour: Pink
[4]; in PEG 400, 3 months, 40° C.
  % (HPLC assay, T0 = 100%): 91.8%
  Colour: Brown
[4]; in PEG 400, 3 months, RT
  % (HPLC assay, T0 = 100%): 89.0%
  Colour: Brown
[4]; [29]
  % (HPLC assay, T0 = 100%): 91.8%
  Colour: Yellow
[4]; [30]
  % (HPLC assay, T0 = 100%): 97.0%
  Colour: Colourless
[4]; [31]
  % (HPLC assay, T0 = 100%): 88.8%
  Colour: Dark yellow
[4]; [32]
  % (HPLC assay, T0 = 100%): 94.2%
  Colour: Yellow
[4]; in solvents of the prior art such as glycols, RT and 40° C., absence of antioxidants
  Colour stability of hydroquinone (in words): colouration is observed

## CCCCc1ccc(O)cc1O [Rucinol, 4-butylresorcinol]
[5]; in Arlamol E
  Max. solubility (% w/w): 48.2 % w/w
[5]; [20]
  Max. solubility (% w/w): 47.8 % w/w
[5]; in Castor oil
  Max. solubility (% w/w): 46.4 % w/w
[5]; in Cremophor EL
  Max. solubility (% w/w): 49.7 % w/w
[5]; in Crodamol DA
  Max. solubility (% w/w): 64.1 % w/w
[5]; in Ethanol
  Max. solubility (% w/w): >75.5 % w/w
[5]; in Glycerol
  Max. solubility (% w/w): 63.8 % w/w
[5]; in Labrasol
  Max. solubility (% w/w): 60.9 % w/w
[5]; in Lauroglycol
  Max. solubility (% w/w): 52.8 % w/w
[5]; in PEG 400
  Max. solubility (% w/w): 61.6 % w/w
[5]; in Propylene glycol
  Max. solubility (% w/w): >67.7 % w/w
[5]; in all the solvents tested
  Solubility of rucinol (in words): very good solubility
[6]; in Arlamol E, 40° C.
  T + 1 month (% LC): 94.4 % LC
[6]; in Arlamol E, RT
  T + 1 month (% LC): 95 % LC
[6]; in Cremophor EL, 40° C.
  T + 1 month (% LC): 96.2 % LC
[6]; in Cremophor EL, RT
  T + 1 month (% LC): 96 % LC
[6]; in Ethanol, 40° C.
  T + 1 month (% LC): 105 % LC
[6]; in Ethanol, RT
  T + 1 month (% LC): 100.4 % LC
[6]; in Labrasol, 40° C.
  T + 1 month (% LC): 100.8 % LC
[6]; in Labrasol, RT
  T + 1 month (% LC): 97.8 % LC
[6]; in Miglyol, 40° C.
  T + 1 month (% LC): 99.8 % LC
[6]; in Miglyol, RT
  T + 1 month (% LC): 91.2 % LC
[1]; [13]
  Chemical stability: rucinol assay, % relative to the theoretical value: 99.4%
[1]; [14]
  Chemical stability: rucinol assay, % relative to the theoretical value: 97.4%
[1]; [15]
  Chemical stability: rucinol assay, % relative to the theoretical value: 98.8%
[1]; [16]
  Chemical stability: rucinol assay, % relative to the theoretical value: 97.8%
[1]; [17]
  Chemical stability: rucinol assay, % relative to the theoretical value: 98.1%
[1]; [18]
  Chemical stability: rucinol assay, % relative to the theoretical value: 100.6%
[1]; [19]
  Chemical stability: rucinol assay, % relative to the theoretical value: 101.6%
